Test results reported in ChEMBL document CHEMBL1201861, “Genomics of Drug Sensitity in Cancer screening data, Wellcome Trust Sanger Institute”.

Assays:
Type in all cases: functional, cell-based
COLO-792 = assay: cells; conditions: Homo sapiens
Description: SANGER: Inhibition of human COLO-792 cell growth in a cell viability assay.

DG-75 = assay: cells; conditions: Homo sapiens;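 note: growth inhibition of DG-75 cells, read out with a cell viability assay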
Description: SANGER: Inhibition of human DG-75 cell growth in a cell viability assay.

DU-145 = assay: cells; conditions: Homo sapiens
Description: SANGER: Inhibition of human DU-145 cell growth in a cell viability assay.

Detroit 562 = assay: cells; conditions: Homo sapiens;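 note: growth inhibition of human Detroit 562 cells, read out by a cell viability assay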
Description: SANGER: Inhibition of human Detroit562 cell growth in a cell viability assay.

EB-3 = assay: cells; conditions: Homo sapiens;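 note: human EB-3 cells, growth inhibition read out via a cell viability assay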
Description: SANGER: Inhibition of human EB-3 cell growth in a cell viability assay.

EFM-19 = assay: cells; conditions: Homo sapiens;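 note: growth inhibition of human EFM-19 cells, measured in a cell viability assay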
Description: SANGER: Inhibition of human EFM-19 cell growth in a cell viability assay.

EFO-27 = assay: cells; conditions: Homo sapiens;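 note: growth inhibition of EFO-27 cells, read out with a cell viability assay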
Description: SANGER: Inhibition of human EFO-27 cell growth in a cell viability assay.

ESS-1 = assay: cells; conditions: Homo sapiens;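 note: growth inhibition of human ESS-1 cells, read out by a cell viability assay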
Description: SANGER: Inhibition of human ESS-1 cell growth in a cell viability assay.

GDM-1 = assay: cells; conditions: Homo sapiens;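 note: cell viability readout used to measure growth inhibition of human GDM-1 cells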
Description: SANGER: Inhibition of human GDM-1 cell growth in a cell viability assay.

GP5d = assay: cells; conditions: Homo sapiens;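 note: growth inhibition of human GP5d cells, read out with a cell viability assay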
Description: SANGER: Inhibition of human GP5d cell growth in a cell viability assay.

H4 = assay: cells; conditions: Homo sapiens
Description: SANGER: Inhibition of human H4 cell growth in a cell viability assay.

HCC1419 = assay: cells; conditions: Homo sapiens;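 note: growth inhibition of human HCC1419 cells, read out as cell viability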
Description: SANGER: Inhibition of human HCC1419 cell growth in a cell viability assay.

HCC1599 = assay: cells; conditions: Homo sapiens;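 note: growth inhibition of HCC1599 cells, read out in a cell viability assay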
Description: SANGER: Inhibition of human HCC1599 cell growth in a cell viability assay.

HCC1937 = assay: cells; conditions: Homo sapiens;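 note: growth inhibition measured with a cell viability read-out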
Description: SANGER: Inhibition of human HCC1937 cell growth in a cell viability assay.

HCC 2998 = assay: cells; conditions: Homo sapiens;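 note: growth inhibition of human HCC2998 cells, measured with a cell viability read-out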
Description: SANGER: Inhibition of human HCC2998 cell growth in a cell viability assay.

HMV-2 cell line = assay: cells; conditions: Homo sapiens;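 note: growth inhibition of HMV-II cells, read out with a cell viability assay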
Description: SANGER: Inhibition of human HMV-II cell growth in a cell viability assay.

HN = assay: cells; conditions: Homo sapiens
Description: SANGER: Inhibition of human HN cell growth in a cell viability assay.

HOP-92 = assay: cells; conditions: Homo sapiens;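 note: cell viability readout, with IC50 reflecting inhibition of HOP-92 cell growth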
Description: SANGER: Inhibition of human HOP-92 cell growth in a cell viability assay.

HSC-4 = assay: cells; conditions: Homo sapiens;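 note: growth inhibition of human HSC-4 cells, read out with a cell viability assay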
Description: SANGER: Inhibition of human HSC-4 cell growth in a cell viability assay.

HT-1080 = assay: cells; conditions: Homo sapiens
Description: SANGER: Inhibition of human HT-1080 cell growth in a cell viability assay.

HT-3 = assay: cells; conditions: Homo sapiens;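 note: growth inhibition measured with a cell viability readout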
Description: SANGER: Inhibition of human HT-3 cell growth in a cell viability assay.

HT55 = assay: cells; conditions: Homo sapiens;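 note: cell viability readout measuring growth inhibition of human HT55 cells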
Description: SANGER: Inhibition of human HT55 cell growth in a cell viability assay.

IGR-1 = assay: cells; conditions: Homo sapiens;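 note: growth inhibition of human IGR-1 cells, read out with a cell viability assay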
Description: SANGER: Inhibition of human IGR-1 cell growth in a cell viability assay.

IGROV-1 = assay: cells; conditions: Homo sapiens;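 note: reduction of IGROV-1 cell growth, read out with a viability assay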
Description: SANGER: Inhibition of human IGROV-1 cell growth in a cell viability assay.

KARPAS-422 = assay: cells; conditions: Homo sapiens
Description: SANGER: Inhibition of human KARPAS-422 cell growth in a cell viability assay.

KOSC-2 = assay: cells; conditions: Homo sapiens;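 note: growth inhibition of KOSC-2 cells, read out by a cell viability assay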
Description: SANGER: Inhibition of human KOSC-2 cell growth in a cell viability assay.

KP-4 = assay: cells; conditions: Homo sapiens;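 note: human KP-4 cells, with growth inhibition read out through a cell viability assay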
Description: SANGER: Inhibition of human KP-4 cell growth in a cell viability assay.

LCLC-97TM1 = assay: cells; conditions: Homo sapiens;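 note: cell viability assay measuring growth inhibition of human LCLC-97TM1 cells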
Description: SANGER: Inhibition of human LCLC-97TM1 cell growth in a cell viability assay.

LOUCY = assay: cells; conditions: Homo sapiens;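 note: growth inhibition of human LOUCY cells, read out with a cell viability assay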
Description: SANGER: Inhibition of human LOUCY cell growth in a cell viability assay.

LoVo = assay: cells; conditions: Homo sapiens;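 note: growth inhibition of human LoVo cells, read out with a cell viability assay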
Description: SANGER: Inhibition of human LoVo cell growth in a cell viability assay.

M059J = assay: cells; conditions: Homo sapiens;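 note: growth inhibition of M059J cells, read out with a cell viability assay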
Description: SANGER: Inhibition of human M059J cell growth in a cell viability assay.

NCI-H1437 = assay: cells; conditions: Homo sapiens;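 note: growth inhibition of human NCI-H1437 cells, read out by a cell viability assay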
Description: SANGER: Inhibition of human NCI-H1437 cell growth in a cell viability assay.

NCI-H1755 = assay: cells; conditions: Homo sapiens;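 note: cell viability readout used to measure growth inhibition of NCI-H1755 cells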
Description: SANGER: Inhibition of human NCI-H1755 cell growth in a cell viability assay.

NCI-H2009 = assay: cells; conditions: Homo sapiens;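 note: cell viability assay measuring inhibition of NCI-H2009 cell growth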
Description: SANGER: Inhibition of human NCI-H2009 cell growth in a cell viability assay.

NCI-H2052 = assay: cells; conditions: Homo sapiens;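 note: growth inhibition of NCI-H2052 cells, read out with a cell viability assay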
Description: SANGER: Inhibition of human NCI-H2052 cell growth in a cell viability assay.

NCI-H2087 = assay: cells; conditions: Homo sapiens;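 note: growth inhibition determined with a cell viability readout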
Description: SANGER: Inhibition of human NCI-H2087 cell growth in a cell viability assay.

NCI-H2452 = assay: cells; conditions: Homo sapiens;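 note: growth inhibition of NCI-H2452 cells, read out with a cell viability assay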
Description: SANGER: Inhibition of human NCI-H2452 cell growth in a cell viability assay.

NCI-H460 = assay: cells; conditions: Homo sapiens;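 note: cell viability assay scoring growth inhibition of human NCI-H460 cells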
Description: SANGER: Inhibition of human NCI-H460 cell growth in a cell viability assay.

NCI-H650 = assay: cells; conditions: Homo sapiens;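 note: growth inhibition of NCI-H650 cells, read out by a viability assay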
Description: SANGER: Inhibition of human NCI-H650 cell growth in a cell viability assay.

OAW-42 = assay: cells; conditions: Homo sapiens;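 note: growth inhibition of OAW-42 cells, read out with a cell viability assay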
Description: SANGER: Inhibition of human OAW-42 cell growth in a cell viability assay.

OPM-2 = assay: cells; conditions: Homo sapiens;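 note: growth of OPM-2 cells measured with a viability assay, IC50 for suppression of proliferation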
Description: SANGER: Inhibition of human OPM-2 cell growth in a cell viability assay.

OVCAR-5 = assay: cells; conditions: Homo sapiens;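 note: growth inhibition of human OVCAR-5 cells, read out with a cell viability assay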
Description: SANGER: Inhibition of human OVCAR-5 cell growth in a cell viability assay.

PF-382 = assay: cells; conditions: Homo sapiens
Description: SANGER: Inhibition of human PF-382 cell growth in a cell viability assay.

RO82-W-1 = assay: cells; conditions: Homo sapiens;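 note: growth inhibition of human RO82-W-1 cells, measured with a cell viability assay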
Description: SANGER: Inhibition of human RO82-W-1 cell growth in a cell viability assay.

SIMA = assay: cells; conditions: Homo sapiens;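 note: growth inhibition of SIMA cells, measured with a cell viability readout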
Description: SANGER: Inhibition of human SIMA cell growth in a cell viability assay.

SJRH30 = assay: cells; conditions: Homo sapiens;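 note: growth inhibition of human SJRH30 cells, read out with a cell viability assay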
Description: SANGER: Inhibition of human SJRH30 cell growth in a cell viability assay.

SK-MEL-24 = assay: cells; conditions: Homo sapiens;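 note: growth inhibition read out by a cell viability assay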
Description: SANGER: Inhibition of human SK-MEL-24 cell growth in a cell viability assay.

ST486 = assay: SANGER: Inhibition of human ST486 cell growth in a cell viability assay.
T84 = assay: cells; conditions: Homo sapiens;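 note: growth inhibition measured with a cell viability readout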
Description: SANGER: Inhibition of human T84 cell growth in a cell viability assay.

TALL-1 = assay: cells; conditions: Homo sapiens;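 note: growth inhibition of cultured human TALL-1 cells, read out by a cell viability assay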
Description: SANGER: Inhibition of human TALL-1 cell growth in a cell viability assay.

CWR22R = assay: cells; conditions: Homo sapiens, 22Rv1;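 note: growth inhibition of 22Rv1 cells, read out with a cell viability assay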
Description: SANGER: Inhibition of human 22RV1 cell growth in a cell viability assay.

A2780 = assay: cells; conditions: Homo sapiens;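 note: growth inhibition of A2780 cells, read out with a cell viability assay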
Description: SANGER: Inhibition of human A2780 cell growth in a cell viability assay.

AU565 = assay: cells; conditions: Homo sapiens;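 note: cell viability assay measuring growth inhibition of human AU565 cells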
Description: SANGER: Inhibition of human AU565 cell growth in a cell viability assay.

BC1 cell line = assay: SANGER: Inhibition of human BC-1 cell growth in a cell viability assay.
BCPAP = assay: cells; conditions: Homo sapiens;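 note: growth inhibition of BCPAP cells, read out in a cell viability assay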
Description: SANGER: Inhibition of human BCPAP cell growth in a cell viability assay.

BOKU = assay: cells; conditions: Homo sapiens;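 note: growth inhibition of the human BOKU cell line, read out by a cell viability assay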
Description: SANGER: Inhibition of human BOKU cell growth in a cell viability assay.

BXPC-3 = assay: cells; conditions: Homo sapiens;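 note: growth inhibition of human BxPC-3 cells, read out by a cell viability assay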
Description: SANGER: Inhibition of human BxPC-3 cell growth in a cell viability assay.

CAL-27 = assay: cells; conditions: Homo sapiens;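 note: Viability-based readout, IC50 reflecting inhibition of CAL-27 cell growth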
Description: SANGER: Inhibition of human CAL-27 cell growth in a cell viability assay.

TE-15 = assay: cells; conditions: Homo sapiens;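 note: cell viability readout of growth inhibition in TE-15 cells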
Description: SANGER: Inhibition of human TE-15 cell growth in a cell viability assay.

VM-CUB-1 = assay: cells; conditions: Homo sapiens;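 note: cell viability assay measuring growth inhibition of the human VM-CUB-1 cell line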
Description: SANGER: Inhibition of human VM-CUB-1 cell growth in a cell viability assay.

YAPC = assay: cells; conditions: Homo sapiens
Description: SANGER: Inhibition of human YAPC cell growth in a cell viability assay.

COLO-679 = assay: cells; conditions: Homo sapiens
Description: SANGER: Inhibition of human COLO-679 cell growth in a cell viability assay.

CCNC(=O)c1noc(-c2cc(C(C)C)c(O)cc2O)c1-c1ccc(CN2CCOCC2)cc1 [LUMINESPIB]
IC50 (COLO-792): 88.5 nM
IC50 (DG-75): > 256 nM
IC50 (DU-145): 12.9 nM
IC50 (Detroit 562): 38.7 nM
IC50 (EB-3): 224 nM
IC50 (EFM-19): > 256 nM
IC50 (EFO-27): 10.2 nM
IC50 (ESS-1): 78.7 nM
IC50 (GDM-1): 8.4 nM
IC50 (GP5d): 27.2 nM
IC50 (H4): 13.7 nM
IC50 (HCC1419): 95.4 nM
IC50 (HCC1599): 96 nM
IC50 (HCC1937): 44.6 nM
IC50 (HCC 2998): 29.4 nM
IC50 (HMV-2 cell line): 4.49 nM
IC50 (HN): 25.9 nM
IC50 (HOP-92): 77.1 nM
IC50 (HSC-4): 172 nM
IC50 (HT-1080): 22.1 nM
IC50 (HT-3): > 256 nM
IC50 (HT55): > 256 nM
IC50 (IGR-1): 20.5 nM
IC50 (IGROV-1): 8.14 nM
IC50 (KARPAS-422): 140 nM
IC50 (KOSC-2): 41.1 nM
IC50 (KP-4): 36.6 nM
IC50 (LCLC-97TM1): 13 nM
IC50 (LOUCY): 5.05 nM
IC50 (LoVo): 39.3 nM
IC50 (M059J): 22.4 nM
IC50 (NCI-H1437): 63.3 nM
IC50 (NCI-H1755): 138 nM
IC50 (NCI-H2009): 27.6 nM
IC50 (NCI-H2052): 104 nM
IC50 (NCI-H2087): 32.9 nM
IC50 (NCI-H2452): > 256 nM
IC50 (NCI-H460): 13.4 nM
IC50 (NCI-H650): 21.2 nM
IC50 (OAW-42): 37.5 nM
IC50 (OPM-2): > 256 nM
IC50 (OVCAR-5): 18.1 nM
IC50 (PF-382): 48.3 nM
IC50 (RO82-W-1): > 256 nM
IC50 (SIMA): > 256 nM
IC50 (SJRH30): 94.4 nM
IC50 (SK-MEL-24): 42.8 nM
IC50 (ST486): 55.3 nM
IC50 (T84): 13.3 nM
IC50 (TALL-1): > 256 nM
IC50 (CWR22R): 35.1 nM
IC50 (A2780): 17.1 nM
IC50 (AU565): 118 nM
IC50 (BC1 cell line): 33.7 nM
IC50 (BCPAP): 26.5 nM
IC50 (BOKU): 66.7 nM
IC50 (BXPC-3): 43.4 nM
IC50 (CAL-27): 81.6 nM
IC50 (TE-15): 13.4 nM
IC50 (VM-CUB-1): 53.1 nM
IC50 (YAPC): > 256 nM
IC50 (COLO-679): 31.1 nM

C/C=C(/C)C(=O)O[C@H]1C(C)=C2[C@H]([C@@H]1OC(=O)CCCCCCC)[C@@](C)(OC(C)=O)C[C@H](OC(=O)CCC)[C@@]1(O)[C@H]2OC(=O)[C@@]1(C)O [THAPSIGARGIN]
IC50 (COLO-792): 59.6 nM
IC50 (DG-75): > 512 nM
IC50 (DU-145): 8.63 nM
IC50 (Detroit 562): 2.52 nM
IC50 (EB-3): 19 nM
IC50 (EFM-19): > 512 nM
IC50 (EFO-27): 25.4 nM
IC50 (ESS-1): 7.58 nM
IC50 (GDM-1): 230 nM
IC50 (GP5d): 41.7 nM
IC50 (H4): 1.98 nM
IC50 (HCC1419): > 512 nM
IC50 (HCC1599): 194 nM
IC50 (HCC1937): 0.927 nM
IC50 (HCC 2998): < 2 nM
IC50 (HMV-2 cell line): 6.87 nM
IC50 (HN): > 512 nM
IC50 (HOP-92): 5.26 nM
IC50 (HSC-4): > 512 nM
IC50 (HT-1080): < 2 nM
IC50 (HT-3): 21.7 nM
IC50 (HT55): > 512 nM
IC50 (IGR-1): 10.5 nM
IC50 (IGROV-1): < 2 nM
IC50 (KARPAS-422): 23.9 nM
IC50 (KOSC-2): 425 nM
IC50 (KP-4): 2.64 nM
IC50 (LCLC-97TM1): < 2 nM
IC50 (LOUCY): 29.9 nM
IC50 (LoVo): 10.4 nM
IC50 (M059J): 10.8 nM
IC50 (NCI-H1437): 2.47 nM
IC50 (NCI-H1755): 310 nM
IC50 (NCI-H2009): 1.63 nM
IC50 (NCI-H2052): 6.4 nM
IC50 (NCI-H2087): 0.546 nM
IC50 (NCI-H2452): > 512 nM
IC50 (NCI-H460): 8.37 nM
IC50 (NCI-H650): 296 nM
IC50 (OAW-42): 27 nM
IC50 (OPM-2): < 2 nM
IC50 (OVCAR-5): < 2 nM
IC50 (PF-382): 25.9 nM
IC50 (RO82-W-1): > 512 nM
IC50 (SIMA): 38.4 nM
IC50 (SJRH30): 8.84 nM
IC50 (SK-MEL-24): > 512 nM
IC50 (ST486): 1.77 nM
IC50 (T84): 13.4 nM
IC50 (TALL-1): 21.7 nM
IC50 (CWR22R): 1.17 nM
IC50 (A2780): < 2 nM
IC50 (AU565): 1.2 nM
IC50 (BC1 cell line): 23.2 nM
IC50 (BCPAP): < 2 nM
IC50 (BOKU): > 512 nM
IC50 (BXPC-3): 6.53 nM
IC50 (CAL-27): < 2 nM
IC50 (TE-15): 4.91 nM
IC50 (VM-CUB-1): 22 nM
IC50 (YAPC): 89.6 nM
IC50 (COLO-679): < 2 nM
